In assay [1] the target is T1, prostanoid EP2 receptor (Homo sapiens, UniProt P43116).
T1 construct: expressed in transfected cells
Nature of the assay: HEK293-pCRE5/SEAP transfectoma stably transfected with EP2 receptor, response to PGE2 with or without IBMX. The assay is classed as cell-based. The note with it: stable EP2 transfectant, 100 μM IBMX vs absence, 6 h. Here is the method:
A HEK293-pCRE5/SEAP transfectoma was stably transfected with the prostanoid EP2 receptor and challenged with PGE2 in the absence (empty circles) or presence (closed circles) of 100 μM IBMX for 6 h and SEAP activity determined (FIG. 5). In this case, EC50 was shifted 10-fold to the left.

Assay [2] deals with prostanoid EP2 receptor. Nature of the assay: Transient expression and activation of the EP2 receptor in the HEK293-pCRE5/SEAP transfectoma (SEAP reporter). The assay is classed as cell-based. The note with it: transiently transfected EP2 receptor, PGE2 challenge for 6 hours, SEAP readout; read-out: estimated EC50. Here is the method:
Twenty four hours after transfection with a plasmid containing the prostanoid EP2 receptor (closed symbol) or the empty vector (open symbol), the HEK293-pCRE5/SEAP transfectoma was challenged with PGE2 for 6 hours (FIG. 4). The estimated EC50 was below 1 nM of PGE2.

In assay [3] the test system is HEK293-pCRE5/SEAP transfectoma. Briefly: Forskolin-induced SEAP production in stable HEK293-pCRE5/SEAP transfectoma, 50 h. Type of assay: cell-based, human. As for the experimental part: Upper Panel A: Stable HEK293-pCRE5/SEAP transfectoma was stimulated with 20 μM forskolin with or without 100 μM IBMX or 200 μM theophylline for 50 h and SEAP activity was then measured on an aliquot of the supernatant (FIG. 7).

These results are taken from patent US6596508B2, “CRE-inducible expression system” (National Research Council of Canada, priority 1999, dated 2003).

T1 sequence (P43116 whole entry, species assumed): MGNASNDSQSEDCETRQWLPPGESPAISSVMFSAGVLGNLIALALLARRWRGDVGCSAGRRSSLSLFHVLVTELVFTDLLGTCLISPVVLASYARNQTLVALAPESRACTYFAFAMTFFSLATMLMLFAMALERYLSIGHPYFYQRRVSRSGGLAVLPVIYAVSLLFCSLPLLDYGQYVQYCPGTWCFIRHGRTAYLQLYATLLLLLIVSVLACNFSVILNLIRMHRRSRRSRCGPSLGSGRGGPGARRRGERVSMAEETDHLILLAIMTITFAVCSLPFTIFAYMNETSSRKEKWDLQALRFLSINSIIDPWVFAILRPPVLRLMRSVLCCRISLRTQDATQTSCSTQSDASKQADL

Consider `CCCCC[C@H](O)/C=C/[C@H]1[C@H](O)CC(=O)[C@@H]1C/C=C\CCCC(=O)O` [PGE2], for which the “EC50 shift to the left in presence of IBMX” value in assay [1] was 10 fold. The EC50 in assay [2] is below 1 nM.
Turning to `C=C[C@@]1(C)CC(=O)[C@]2(O)[C@@]3(C)[C@@H](O)CCC(C)(C)[C@@H]3[C@H](O)[C@H](OC(C)=O)[C@@]2(C)O1` [forskolin], the “fold-induction of SEAP activity (Panel B, independent experiment)” value in assay [3] (20 μM forskolin with or without 100 μM IBMX) is on record as 198 fold. Besides, the “fold-induction of SEAP activity (Panel A)” value in assay [3] (20 μM forskolin with or without 100 μM IBMX or 200 μM theophylline) was determined as 128 fold.
